Reference: patent US20220233441A1, “MIC[…] SYSTEMS FOR CANNABIS EXTRACTS AND […]” (Quicksilver Scientific, Inc., priority 2019, published 2022)
Entries after “also recorded” stand apart in the source; their conditions may differ.

Test: Formation of shelf-stable and visually clear MOIW microemulsions with different constituents
Assay type: physicochemical
Excerpt: A shelf-stable microemulsion may be determined in one of two ways. […] Either type of dissociation means that the microemulsion is not shelf-stable.
A visually clear microemulsion has an average particle diameter of 200 nm and less and lacks precipitated solid crystals visible to the naked eye.

| Molecule | usefulness of the constituent for forming shelf-stable and visually clear MOIW microemulsions |
| --- | --- |
| OC[C@@H](O)[C@@H](O)CO [erythritol] | not useful |
| OC[C@@H](O)[C@@H](O)[C@H](O)[C@H](O)CO [mannitol] | not useful |
| OC[C@@H](O)[C@@H](O)[C@H](O)[C@@H](O)CO [sorbitol] | not useful |
| OC[C@@H](O)[C@H](O)[C@@H](O)CO [xylitol] | not useful |
| polysorbate 20 | did not form shelf-stable and visually clear microemulsions; also recorded: not useful |
